Values joined by “and” are separate entries in the source; they are usually repeats but may differ in a detail not shown here. Identical values can stand only once. Toxic doses and inconclusive results are not listed.

The test system of this experiment is CD2F1 mice, L1210 leukemia ip, survival T/C. Briefly: NCI In Vivo Anticancer Drug Screen. Data for tumor model L1210 Leukemia (intraperitoneal) in CD2F1 (CDF1) mice. The settings on record: endpoint: mean survival time, higher = longer survival. Summed up:
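Antitumor effect is scored in animals hosting a serially transplanted tumor. Values compare compound-dosed animals against vehicle-only controls as a simple quotient.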

[1] abbreviates: dose: 12.5 mg/kg/injection, schedule: Q01DX009 (ip), vehicle: water.
[2] abbreviates: dose: 25.0 mg/kg/injection, schedule: Q01DX009 (ip), vehicle: water.
The mark [3] stands for this setting: dose: 50.0 mg/kg/injection, schedule: Q01DX009 (ip), vehicle: water.
Setting [4] is: dose: 100.0 mg/kg/injection, schedule: Q01DX009 (ip), vehicle: saline with Tween-80.
The mark [5] stands for this setting: dose: 200.0 mg/kg/injection, schedule: Q01DX009 (ip), vehicle: saline with Tween-80.
Setting [6] is: dose: 400.0 mg/kg/injection, schedule: Q01DX009 (ip), vehicle: saline with Tween-80.
Where [7] appears, read: dose: 100.0 mg/kg/injection, schedule: Q04DX003 (ip), vehicle: saline with Tween-80.
[8] abbreviates: dose: 200.0 mg/kg/injection, schedule: Q04DX003 (ip), vehicle: saline with Tween-80.
The mark [9] stands for this setting: dose: 400.0 mg/kg/injection, schedule: Q04DX003 (ip), vehicle: saline with Tween-80.
[10] abbreviates: dose: 6.25 mg/kg/injection, schedule: Q04DX003 (ip), vehicle: saline with Tween-80.
Where [11] appears, read: dose: 12.5 mg/kg/injection, schedule: Q04DX003 (ip), vehicle: saline with Tween-80.
Where [12] appears, read: dose: 25.0 mg/kg/injection, schedule: Q04DX003 (ip), vehicle: saline with Tween-80.

With `CCCCCCCCCCC(=O)OCC1OC2C(Oc3nc(=N)ccn32)C1OC(=O)CCCCCCCCCC` (stereo unspecified), the T/C was 156 % of control under setting [1]; 202 % of control under setting [2]; 242 % of control under setting [3]; 118 % of control (dose: 100.0 mg/kg/injection, schedule: Q01DX009 (ip), vehicle: water).

Take `CCN(CC)CCNC(=O)C(O)C1CCCCC1` (stereo unspecified): the T/C (dose: 75.0 mg/kg/injection, schedule: Q01DX001 (ip), vehicle: other) was 90 % of control.

As for `Clc1ccc(COc2ccc(Cl)cc2Cn2ccnc2)c(Cl)c1`, the T/C runs as follows: under setting [4], 101 % of control; under setting [5], 95 % of control; under setting [6], 98 % of control.

With `CC(C)CCC(C(=O)O)C(=O)O`, the T/C is, setting by setting: (dose: 75.0 mg/kg/injection, schedule: Q01DX001 (ip), vehicle: saline) 96 % of control; (dose: 150.0 mg/kg/injection, schedule: Q01DX001 (ip), vehicle: saline) 102 % of control.

On to `O=C(c1ccccc1)N(CCCCl)C(=O)N(CCCCl)C(=O)c1ccccc1`, for which the T/C under setting [7] is 105 % of control, the T/C under setting [8] is 100 % of control and the T/C under setting [9] was 108 % of control.

Turning to `NC(Cc1cc(I)c(Oc2cc(I)c(O)c(I)c2)c(I)c1)C(=O)O` (stereo unspecified), the T/C is 96 % of control (dose: 0.04 mg/kg/injection, schedule: Q01DX009 (ip), vehicle: saline + alcohol); 88 % of control and 96 % of control (dose: 0.04 mg/kg/injection, schedule: Q01DX009 (ip), vehicle: saline); 102 % of control (dose: 0.16 mg/kg/injection, schedule: Q01DX009 (ip), vehicle: saline + alcohol); 91 % of control and 98 % of control (dose: 0.16 mg/kg/injection, schedule: Q01DX009 (ip), vehicle: saline); 93 % of control (dose: 0.25 mg/kg/injection, schedule: Q01DX009 (ip), vehicle: saline); 94 % of control (dose: 0.63 mg/kg/injection, schedule: Q01DX009 (ip), vehicle: saline). Also, the T/C reads like this: (dose: 0.64 mg/kg/injection, schedule: Q01DX009 (ip), vehicle: saline + alcohol) 94 % of control; (dose: 0.64 mg/kg/injection, schedule: Q01DX009 (ip), vehicle: saline) 87 % of control and 94 % of control; (dose: 1.0 mg/kg/injection, schedule: Q01DX009 (ip), vehicle: saline) 96 % of control; (dose: 2.0 mg/kg/injection, schedule: Q01DX009 (ip), vehicle: saline) 88 % of control; (dose: 2.5 mg/kg/injection, schedule: Q01DX009 (ip), vehicle: saline + alcohol) 93 % of control; (dose: 2.5 mg/kg/injection, schedule: Q01DX009 (ip), vehicle: saline) 91 % of control and 92 % of control and 94 % of control. In addition, the T/C runs as follows: (dose: 8.0 mg/kg/injection, schedule: Q01DX009 (ip), vehicle: saline) 86 % of control and 88 % of control and 90 % of control; (dose: 10.0 mg/kg/injection, schedule: Q01DX009 (ip), vehicle: saline + alcohol) 94 % of control; (dose: 10.0 mg/kg/injection, schedule: Q01DX009 (ip), vehicle: saline) 89 % of control and 90 % of control and 92 % of control; (dose: 16.0 mg/kg/injection, schedule: Q01DX009 (ip), vehicle: saline) 86 % of control and 89 % of control; (dose: 32.0 mg/kg/injection, schedule: Q01DX009 (ip), vehicle: saline) 83 % of control and 89 % of control; (dose: 40.0 mg/kg/injection, schedule: Q01DX009 (ip), vehicle: saline) 88 % of control. The T/C (dose: 64.0 mg/kg/injection, schedule: Q01DX009 (ip), vehicle: saline) was 87 % of control and 89 % of control; the T/C (dose: 128.0 mg/kg/injection, schedule: Q01DX009 (ip), vehicle: saline) is 87 % of control and 90 % of control.

With `COc1ccc(-c2nccc3cc(OC)c(OC)cc23)cc1OC`, the T/C by setting is: under setting [1], 95 % of control; under setting [2], 95 % of control; under setting [3], 103 % of control.

On to `Nc1c([N+](=O)[O-])cncc1[N+](=O)[O-]`, for which the T/C was 102 % of control (dose: 6.25 mg/kg/injection, schedule: Q01DX009 (ip), vehicle: saline sonified); 98 % of control under setting [10]; 98 % of control (dose: 12.5 mg/kg/injection, schedule: Q01DX009 (ip), vehicle: saline sonified); 102 % of control under setting [11]; 98 % of control (dose: 25.0 mg/kg/injection, schedule: Q01DX009 (ip), vehicle: saline sonified); 102 % of control under setting [12].

`NN1C(=O)c2c(Cl)c(Cl)c(Cl)c(Cl)c2C1=O`: the T/C was 97 % of control under setting [4]; 95 % of control under setting [7]; 98 % of control under setting [5]; 97 % of control under setting [8]; 93 % of control under setting [6]; 92 % of control under setting [9].

Regarding `CC(CC(O)(C(F)(F)F)C(F)(F)F)OC(=O)Nc1ccc(Cl)c(Cl)c1` (stereo unspecified), the T/C (dose: 100.0 mg/kg/injection, schedule: Q04DX003 (ip), vehicle: Klucel (hydroxypropylcellulose) (HPC)) was 96 % of control; the T/C (dose: 200.0 mg/kg/injection, schedule: Q04DX003 (ip), vehicle: Klucel (hydroxypropylcellulose) (HPC)) was 101 % of control; the T/C (dose: 400.0 mg/kg/injection, schedule: Q04DX003 (ip), vehicle: Klucel (hydroxypropylcellulose) (HPC)) is 101 % of control.

Turning to `Cc1ccc(-c2nn[nH]n2)cc1[N+](=O)[O-]`, the T/C reads like this: (dose: 100.0 mg/kg/injection, schedule: Q01DX001 (ip), vehicle: saline with Tween-80) 109 % of control; under setting [7], 95 % of control; (dose: 200.0 mg/kg/injection, schedule: Q01DX001 (ip), vehicle: saline with Tween-80) 86 % of control; under setting [8], 97 % of control; (dose: 400.0 mg/kg/injection, schedule: Q01DX001 (ip), vehicle: saline with Tween-80) 89 % of control; under setting [9], 95 % of control.

Take `c1ccc2c(c1)CC1CCCCN1C2` (stereo unspecified): the T/C by setting is: (dose: 12.5 mg/kg/injection, schedule: Q01DX009 (ip), vehicle: Klucel (hydroxypropylcellulose) (HPC)) 94 % of control; (dose: 12.5 mg/kg/injection, schedule: Q04DX003 (ip), vehicle: saline) 95 % of control; (dose: 25.0 mg/kg/injection, schedule: Q01DX009 (ip), vehicle: Klucel (hydroxypropylcellulose) (HPC)) 100 % of control; (dose: 25.0 mg/kg/injection, schedule: Q04DX003 (ip), vehicle: saline) 93 % of control; (dose: 50.0 mg/kg/injection, schedule: Q01DX009 (ip), vehicle: Klucel (hydroxypropylcellulose) (HPC)) 97 % of control; (dose: 50.0 mg/kg/injection, schedule: Q04DX003 (ip), vehicle: saline) 95 % of control.

Consider `COc1cccc2c1C(=O)c1c(O)c3c(c(O)c1C2=O)C[C@@](O)(C(=O)COC(=O)c1ccccc1)C[C@@H]3OC1CC(N)C(O)C(C)O1` (stereo partly specified), for which the T/C runs as follows: (dose: 0.5 mg/kg/injection, schedule: Q01DX009 (ip), vehicle: saline sonified) 122 % of control; (dose: 1.3 mg/kg/injection, schedule: Q04DX003 (ip), vehicle: Klucel (hydroxypropylcellulose) (HPC)) 124 % of control.

Consider `N#CS.[Co+3].[NH-]CC[NH-].[NH-]CC[NH-].[NH-]CC[SH2+]`, for which the T/C reads like this: (dose: 100.0 mg/kg/injection, schedule: Q04DX002 (ip), vehicle: saline) 112 % of control; (dose: 200.0 mg/kg/injection, schedule: Q04DX002 (ip), vehicle: saline) 104 % of control; (dose: 400.0 mg/kg/injection, schedule: Q04DX002 (ip), vehicle: saline) 108 % of control.

As to `c1ccc(CN2CCNCC2)cc1`, the T/C under setting [10] is 96 % of control, the T/C under setting [11] is 96 % of control and the T/C under setting [12] is 101 % of control.

The values above are taken from PubChem BioAssay AID256 (DTP/NCI, 2004).
